# From US20060046968A1, “Prodrug substituted benzoxazoles as estrogenic agents” (priority 2004, published 2006)
# Like-named read-outs stand apart in the source and are kept apart here.
# Columns and labels:
# human ERβ = target: T1, human ERβ (Homo sapiens, UniProt Q92731); assay: ER radioligand binding competition, ERβ
# T1 construct: Flag (C); made in house; host or cells: E. coli BL21 (DE3), clarified lysate
# human ERα = target: T2, human ERα (Homo sapiens, UniProt P03372); assay: ER radioligand binding competition, ERα
# T2 construct: These templates contained amino acids M250-V595 of human ERα; His (N); Flag (C); made in house; host or cells: E. coli BL21 (DE3), clarified lysate
# T2 sequence (P03372 250-595): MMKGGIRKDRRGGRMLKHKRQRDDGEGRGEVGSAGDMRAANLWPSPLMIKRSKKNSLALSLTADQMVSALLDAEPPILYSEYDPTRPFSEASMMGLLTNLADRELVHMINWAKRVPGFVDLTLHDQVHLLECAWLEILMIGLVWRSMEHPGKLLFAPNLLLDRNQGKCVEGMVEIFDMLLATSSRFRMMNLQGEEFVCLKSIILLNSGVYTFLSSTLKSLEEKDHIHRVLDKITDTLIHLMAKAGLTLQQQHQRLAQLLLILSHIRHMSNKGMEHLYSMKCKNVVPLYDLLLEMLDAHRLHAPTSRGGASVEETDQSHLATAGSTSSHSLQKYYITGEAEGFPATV
# [1] = tested on: Sexually immature 129 SvE mice; assay: Mouse uterotrophic test procedure (Procedure 2); assay type: in vivo; settings: compound 50 mg/kg s.c., days 22-25
# Lewis rats = assay: Lewis rat adjuvant-induced arthritis, treatment protocol: joint score (maximal score per day 12); assay type: in vivo; settings: s.c. daily, begun Day 8 after adjuvant
# [2] = tested on: ovariectomized Sprague-Dawley rats; assay: Bone mineral density in the ovariectomized rat (pQCT, proximal tibia); assay type: in vivo; settings: 17β-estradiol 2 μg/rat s.c.; 5 weeks
# [3] = competition with [3H]-17β-estradiol, read-out: ER-α IC50
# T1 sequence (Q92731 214-530): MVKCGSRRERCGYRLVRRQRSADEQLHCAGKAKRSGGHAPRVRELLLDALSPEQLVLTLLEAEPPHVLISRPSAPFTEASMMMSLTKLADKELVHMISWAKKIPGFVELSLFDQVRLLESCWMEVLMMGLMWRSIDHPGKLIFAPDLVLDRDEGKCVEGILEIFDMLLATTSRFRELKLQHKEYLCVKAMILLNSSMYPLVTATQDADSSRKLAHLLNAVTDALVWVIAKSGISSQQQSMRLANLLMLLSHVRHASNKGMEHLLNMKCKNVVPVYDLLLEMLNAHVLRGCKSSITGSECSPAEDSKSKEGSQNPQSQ
compound,measurement,setting,value
"COc1cc(O)c(Br)c2nc(-c3ccc(O)cc3)oc12 [Example 59, 4-BROMO-2-(4-HYDROXYPHENYL)-7-METHOXY-1,3-BENZOXAZOL-5-OL]",IC50,human ERβ,52 nM
same,IC50,human ERα; [3],2670 nM
"NC(=O)c1cc(O)cc2nc(-c3ccc(O)cc3)oc12 [Example 42, 5-HYDROXY-2-(4-HYDROXYPHENYL)-1,3-BENZOXAZOL-7-CARBOXAMIDE]",mean uterine weight ± SEM,[1],9.5 ± 0.6 mg
"CCc1cc(O)ccc1-c1nc2cc(O)cc(CC)c2o1 [Example 45, 7-ETHYL-2-(2-ETHYL-4-HYDROXYPHENYL)-1,3-BENZOXAZOL-5-OL]",IC50,human ERβ,84 nM
same,IC50,human ERα; [3],655 nM
"C=C(Br)c1cc(O)cc2nc(-c3ccc(O)c(F)c3F)oc12 [Example 33, 7-(1-BROMOVINYL)-2-(2,3-DIFLUORO-4-HYDROXYPHENYL)-1,3-BENZOXAZOL-5-OL]",IC50,human ERβ,31 nM
same,IC50,human ERα; [3],352 nM
CC(C)(O)c1cc(O)cc2nc(-c3ccc(O)cc3)oc12 [Example 50],IC50,human ERβ,399 nM
same,IC50,human ERα; [3],> 5000 nM
"Oc1cc(Br)c2oc(-c3cc(F)c(O)c(F)c3)nc2c1 [Example 61, 7-BROMO-2-(3,5-DIFLUORO-4-HYDROXYPHENYL)-1,3-BENZOXAZOL-5-OL]",IC50,human ERβ,93 nM
same,IC50,human ERα; [3],1180 nM
"C=C(Br)c1cc(O)cc2nc(-c3ccc(O)cc3)oc12 [Example 31, 7-(1-BROMOVINYL)-2-(4-HYDROXYPHENYL)-1,3-BENZOXAZOL-5-OL]",IC50,human ERβ,31 nM
same,IC50,human ERα; [3],352 nM
"Oc1cc(Br)c2oc(-c3ccc(O)c(F)c3F)nc2c1 [Example 23, 7-BROMO-2-(2,3-DIFLUORO-4-HYDROXYPHENYL)-1,3-BENZOXAZOL-5-OL]",IC50,human ERβ,3 nM
same,IC50,human ERα; [3],113 nM
"COc1c(Br)c(O)c(Br)c2nc(-c3ccc(O)cc3)oc12 [Example 60, 4,6-DIBROMO-2-(4-HYDROXYPHENYL)-7-METHOXY-1,3-BENZOXAZOL-5-OL]",IC50,human ERβ,64 nM
same,IC50,human ERα; [3],559 nM
"C=C(C)c1cc(O)cc2nc(-c3ccc(O)cc3)oc12 [Example 51, 2-(4-HYDROXYPHENYL)-7-ISOPROPENYL-1,3-BENZOXAZOL-5-OL]",IC50,human ERβ,142 nM
same,IC50,human ERα; [3],775 nM
"Oc1ccc(-c2nc3cc(O)cc(C(Br)CBr)c3o2)cc1 (stereo not drawn) [Example 30, 7-(1,2-DIBROMOETHYL)-2-(4-HYDROXYPHENYL)-1,3-BENZOXAZOL-5-OL]",IC50,human ERβ,134 nM
same,IC50,human ERα; [3],3080 nM
"C=C(Br)c1cc(O)cc2nc(-c3ccc(O)cc3F)oc12 [Example 32, 7-(1-BROMOVINYL)-2-(2-FLUORO-4-HYDROXYPHENYL)-1,3-BENZOXAZOL-5-OL]",IC50,human ERβ,16 nM
same,IC50,human ERα; [3],196 nM
same,Joint inflammation score,Lewis rats; table Day 1,11.33
same,Joint inflammation score,Lewis rats; table Day 2,10.83
same,Joint inflammation score,Lewis rats; table Day 3,9.33
same,Joint inflammation score,Lewis rats; table Day 4,8.00
same,Joint inflammation score,Lewis rats; table Day 5,5.83
same,Joint inflammation score,Lewis rats; table Day 6,3.33
same,Joint inflammation score,Lewis rats; table Day 7,3.00
same,Joint inflammation score,Lewis rats; table Day 8,2.50
same,Joint inflammation score,Lewis rats; table Day 9,2.50
same,Joint inflammation score,Lewis rats; table Day 10,2.50
same,Joint inflammation score,Lewis rats; table Day 11,2.50
same,Joint inflammation score,Lewis rats; table Day 12,2.50
same,Joint inflammation score,Lewis rats; table Day 13,2.50
same,Joint inflammation score,Lewis rats; table Day 14,2.50
same,Joint inflammation score,Lewis rats; table Day 15,2.00
same,Joint inflammation score,Lewis rats; table Day 16,1.33
same,Joint inflammation score,Lewis rats; table Day 17,1.00
"Oc1ccc(O)c(-c2nc3cc(O)ccc3o2)c1 [Example 1, 2-(5-HYDROXY-1,3-BENZOXAZOL-2-YL) BENZENE-1,4-DIOL]",IC50,human ERβ,140 nM
same,IC50,human ERα; [3],720 nM
"Oc1ccc(O)c(-c2nc3ccc(O)cc3o2)c1 [Example 8, 2-(6-HYDROXY-1,3-BENZOXAZOL-2-YL)BENZENE-1,4-DIOL]",IC50,human ERβ,181 nM
same,IC50,human ERα; [3],2350 nM
"C=Cc1cc(O)cc2nc(-c3ccc(O)cc3)oc12 [Example 27, 2-(4-HYDROXYPHENYL)-7-VINYL-1,3-BENZOXAZOL-5-OL]",IC50,human ERα,409 nM
same,Joint inflammation score,Lewis rats; table Day 1,11.33
same,Joint inflammation score,Lewis rats; table Day 2,11.15
same,Joint inflammation score,Lewis rats; table Day 3,11.33
same,Joint inflammation score,Lewis rats; table Day 4,9.83
same,Joint inflammation score,Lewis rats; table Day 5,8.83
same,Joint inflammation score,Lewis rats; table Day 6,7.83
same,Joint inflammation score,Lewis rats; table Day 7,6.16
same,Joint inflammation score,Lewis rats; table Day 8,5.00
same,Joint inflammation score,Lewis rats; table Day 9,4.33
same,Joint inflammation score,Lewis rats; table Day 10,2.66
same,Joint inflammation score,Lewis rats; table Day 11,1.83
same,Joint inflammation score,Lewis rats; table Day 12,1.83
same,Joint inflammation score,Lewis rats; table Day 13,2.66
same,Joint inflammation score,Lewis rats; table Day 14,2.66
same,Joint inflammation score,Lewis rats; table Day 15,2.00
same,Joint inflammation score,Lewis rats; table Day 16,2.00
same,Joint inflammation score,Lewis rats; table Day 17,1.50
"Oc1ccc2nc(-c3ccc(O)c(F)c3)oc2c1 [Example 6, 2-(3-FLUORO-4-HYDROXYPHENYL)-1,3-BENZOXAZOL-6-OL]",IC50,human ERα,843 nM
"C[C@]12CC[C@@H]3c4ccc(O)cc4CC[C@H]3[C@@H]1CC[C@@H]2O [17β-estradiol, reference compound]",Total Bone Mineral Density (mean ± SEM),[2],639.49 ± 14.47 mg/mL
same,Trabecular Bone Mineral Density (mean ± SEM),[2],453.28 ± 24.93 mg/mL
"Oc1ccc2nc(-c3cccc(O)c3O)oc2c1 [Example 9, 3-(6-HYDROXY-1,3-BENZOXAZOL-2-YL)BENZENE-1,2-DIOL]",IC50,human ERα,1500 nM
